Results published in patent publication US8729023B2 (priority 2002, dated 2014).
Read-outs that look alike come from different tables or passages of the source. *1 amine or outer side, *2 acyl side, *3 side chain or, on linkers, in order; H or OH if unused. Where a SMILES comes first, the peptide text is derived from it. Suc = O=C(CCC(=O)[*:2])[*:1]

Key:
MNU-induced breast tumor = assay: Effect of IRL1620 on bio-distribution of [^3H] paclitaxel in tumor and major organs of breast tumor bearing rats; settings: IRL1620 3 nmol/kg
[1] = Effect of IRL1620 on plasma pharmacokinetics of paclitaxel, HPLC-UV; assay type: in vivo, rat; settings: normal or tumor bearing rats; paclitaxel i.v. 3 mg/kg 15 minutes after IRL1620 3 nmol/kg
Experimental: Virgin female Sprague Dawley rats (Harlan Co., Madison, Wis.), 48 days old (120-140 g) were used for this study. Upon arrival, all rats were housed three to a cage, in a room with controlled temperature (23±1° C.), humidity (50±10%) and artificial light (0600-1800 hr). The rats were given food and water ad libitum. The experiments were begun only after the rats have been acclimatized to the environment for at least 4 days.
N-methyl-n-nitrosourea (MNU) was administered at a dose of 50 mg/kg, i.p. and rats were palpated twice weekly. Once tumors reached about 75-100 mm^3, pharmacokinetic studies were performed.
HPLC-UV studies. […]
Plasma samples were analyzed for paclitaxel using an HPLC system. […] A 100 μL (lower standard curve and samples collected after IV administration) aliquot of the reconstituted material was injected into a 4 mm NovaPak 150×3.9 mm C18 column (Waters Associates, Milford, Mass.) preceded by a 4 mm NovaPak 20×3.9 mm C18 precolumn using a Waters 2695 separations module connected to a Waters 2487 absorbance detector set at 227 nm. […] Plasma concentrations for paclitaxel were calculated from the ratio of the area of the paclitaxel peak to the area of the N-cyclohexyl benzamide peak using least-squares linear regression and weighting by 1/x. Within day and between days variability measured by a coefficient of variation was <10%. […]

[2] = test system: JHU-4 (MAT-LyLu) prostate tumor; settings: IRL1620 3 nmol/kg alone; day 16
[3] = test system: human melanoma cells (UISO-MEL-2) tumor; settings: melanoma mice
[4] = test system: JHU-4 (MAT-LyLu) prostate tumor; assay: Effect of IRL1620 on [^14C]doxorubicin concentration in tumor and organs of prostate tumor bearing rats; assay type: in vivo, rat; settings: for increase in concentration of [^14C]doxorubicin in tumor compared to saline treated rats: sacrifice 3 hours after
Experimental: Prostate tumors were induced in male Copenhagen rats using JHU-4 (MAT-LyLu) cells obtained from ATCC (Manassas, Va.). See Gaddipati et al., J Exp Ther Oncol, 4(3): 203-12 (2004) which is hereby incorporated by reference. The cells were maintained in RPMI 1640 medium supplemented with fetal bovine serum (10%) in a humidified incubator containing 5% CO2 at 37° C. Hair was shaved from the dorsal side of the neck, and animals were inoculated with 10,000 JHU-4 (MAT-LyLu) cells in 100 μl phosphate buffered saline by subcutaneous (s.c.) injection. Tumor appearance and location was monitored by manual palpation and tumor diameters were measured with a digital caliper. Experimental procedures began once tumor size reached about 200 mm^3.
Biodistribution Study. Tumor bearing rats were randomly grouped (N=6/group) to receive saline or IRL1620 (1, 3 or 6 nmol/kg) via the tail vein in a final volume of 0.2 ml. Rats from each group then received [^14C]doxorubicin (1 μCi/rat) i.v. in a final volume of 1.0 ml 15 minutes after saline or IRL1620 administration. Animals were then sacrificed 3 hours after [^14C]doxorubicin administration. The concentration of [^14C]doxorubicin in the tumor, heart, brain, kidneys, liver, lungs, bone marrow, prostate, skeletal muscles and spleen were examined. Specifically, tumor and organs were sliced into small pieces. The femurs from both legs were separated and weighed with bone marrow flushed out using a syringe containing tissue solubilizer. About 500 mg of tissue or tumor was placed in separate vials containing tissue solubilizer (6 ml) and incubated in a water bath at about 50° C. The vials were removed from the water bath after the tissue or tumor was dissolved and 1.2 ml of 10% glacial acetic acid was added. The contents of the vial were then equally divided into 3 vials and 15 ml of liquid scintillation cocktail (Safety Solve, RPI Corp, Chicago, Ill.) was added to each vial and kept overnight for equilibration. The radioactivity in the tubes was counted using a liquid scintillation counter (Beckman Coulter, LS 6500).

[5] = test system: MNU-induced breast tumors; settings: IRL1620 3 nmol/kg alone; 5 doses; 30 days after final dose
[6] = test system: JHU-4 (MAT-LyLu) prostate tumor; settings: IRL1620 3 nmol/kg alone; day 19
[7] = paclitaxel plasma, three compartmental model, tumor bearing rats, after vehicle or IRL1620 3 nmol/kg

## CC[C@H](C)[C@H](NC(=O)[C@H](CC(=O)O)NC(=O)[C@H](CC(C)C)NC(=O)[C@H](Cc1c[nH]cn1)NC(=O)[C@H](C)NC(=O)[C@H](Cc1ccccc1)NC(=O)[C@H](Cc1ccc(O)cc1)NC(=O)[C@@H](NC(=O)[C@H](C)NC(=O)[C@H](CCC(=O)O)NC(=O)[C@H](CCC(=O)O)NC(=O)[C@H](CC(=O)O)NC(=O)CCC(=O)O)C(C)C)C(=O)N[C@H](C(=O)N[C@@H](Cc1c[nH]c2ccccc12)C(=O)O)[C@@H](C)CC [IRL1620, N-suc-[Glu9, Ala11, 15]ET-1 (8-21)] (Suc-DEEAVYFAHLDIIW-OH)
MNU-induced breast tumor
  accumulation of paclitaxel in the liver, lungs, kidneys and spleen compared to control animals: did not significantly alter
MNU-induced breast tumor; [^3H] paclitaxel administered 15 minutes after IRL1620, sacrifice 3 hours after paclitaxel
  increase in tumor paclitaxel concentration compared to saline treated rats: 277.1%
MNU-induced breast tumor; [^3H] paclitaxel administered 240 minutes after IRL1620
  increase in tumor paclitaxel concentration compared to saline treated rats: 34.7%
[1]
  pharmacokinetic profile of paclitaxel: not affected
[2]
  body weight: 202.2 ± 7.28 g
  percent difference in body weight gain from the beginning of the experiment: 14.19±1.66%
[3]; IRL1620 3 nmol/kg
  accumulation of [^3H]paclitaxel in the heart, kidneys, liver, lungs or spleen compared to saline treated animals: did not produce significant increases
[3]; IRL1620 3 nmol/kg 15 minutes before [^3H]paclitaxel
  increase in tumor [^3H]paclitaxel compared to vehicle treated mice: 572.99%
[3]; IRL1620 3 nmol/kg 15 minutes before [^3H]paclitaxel, sacrifice 3 hours after
  tumor [^3H]paclitaxel concentration: 274.28 nmol/g tissue
[4]; 1 nmol/kg IRL1620 15 minutes before [^14C]doxorubicin
  change in the uptake of [^14C]doxorubicin in tumor or other tissues: did not produce any significant change
[4]; 3 nmol/kg IRL1620 15 minutes before [^14C]doxorubicin
  increase in concentration of [^14C]doxorubicin in tumor compared to saline treated rats: 115.85%
[4]; 6 nmol/kg IRL1620 15 minutes before [^14C]doxorubicin
  increase in concentration of [^14C]doxorubicin in tumor compared to saline treated rats: 80.02%
[4]; IRL1620 1, 3 or 6 nmol/kg
  accumulation of [^14C]doxorubicin in the heart, brain, kidneys, liver, lungs, bone marrow, prostate, skeletal muscles or spleen compared to control animals: No dose of IRL1620 produced significant increases
[5]
  increase in body weight compared to baseline: < 10%
non-compartmental analysis, tumor bearing rats, IRL1620 3 nmol/kg i.v. 15 minutes before paclitaxel
  effect on the pharmacokinetic profile of paclitaxel: did not affect
Paclitaxel plasma, non-compartmental, tumor bearing rats, paclitaxel i.v. 15 minutes after vehicle or IRL1620 3 nmol/kg
  Lambda: 0.10 ± 0.05
[7]
  K10: 1.72 ± 0.57
  K12: 34.93 ± 23.26
  K13: 3.92 ± 1.88
Three compartmental model, IRL1620 3 nmol/kg 15 minutes before paclitaxel
  paclitaxel compartmental pharmacokinetic parameters in the IRL1620 treated group versus the vehicle treated group: not significantly different
[6]
  body weight: 175.72 ± 2.35 g
